Test results: patent US6861395B2, “Method and compositions for inhibiting the growth of microorganisms in metal working fluids” (Arch UK Biocides Limited, priority 2000, dated 2005)

Assays:
[1] = test system: Yeast and Fungi (Fusarium solani, Penicillium sp., Acremonium strictum, Geotrichum candidum); test: Microbial resistance test based on ASTM E686-91, fungal contamination in semi synthetic metal working fluid; type: cell-based; conditions: for Fungal Contamination after (days) 10: 10 days; for Fungal Contamination after (days) 31: 31 days; for Fungal Contamination after (days) 87: 87 days; for Fungal Contamination after (days) 110: 110 days; for all read-outs here: key: +++ indicates confluent growth; ++ indicates moderate growth; + indicates slight growth; − indicates no growth
Protocol: (§1) The following microbial strains were studied:
(§2) The biocides shown in Tables 4, 5 and 6 were added to the metal working fluid shown in each table and assessed for microbial resistance by a method based on ASTM E686-91: Standard Test Method for Evaluation of Antimicrobial Agents in Aqueous Metal Working Fluids as described below.
(§3) The metal working fluids used in the assessment were the same as those used in Examples 1 to 7.
(§4) Bacteria and fungi were gradually acclimatised to the metal working fluid. The organisms were grown up in biocide free metal working fluid (containing 50% (v/v) minimal broth) with aeration at 25° C. until microbial count reached 10^9 cfu/ml. Every 7 days each micro-organism was subcultured into 90 ml (10 ml inoculum) and re-incubated. Subculturing was done for a minimum of three cycles before use.
(§5) To 1I French square bottles, 900 ml of metal working fluid was added at use concentration (diluted to 5% with water of 125 ppm calcium hardness). 100 ml of inoculum was added and mixed (100 ml of total quantity was removed and discarded). The metal working fluid was allowed to sit undisturbed for 64 hours. The metal working fluid was mixed and sampled for microbiological testing.
(§6) Bacteria and fungi were enumerated by streaking an aliquot onto nutrient or malt agar as appropriate. The mixtures were aerated using capillary tubing to bubble air into the bottom of the bottle (introduced by means of a multi-valve air manifold). Antifoam was also added. After 5 days, the aeration was stopped and volume replaced with sterile distilled water. The mixture was allowed to sit for 64 hours and then mixed. 10 ml of inoculum was used to re-inoculate and all losses were replaced with Biocide containing metal working fluid. The pH of the metal working fluid was measured at start of test and every 7 days. […] Aeration was resumed and the regime repeated for a minimum of 6 weeks or until failure.

[2] = test system: Fusarium solani (ATCC 58877/IMI 314228); test: MIC by doubling dilution in microtitre plate; type: cell-based
Protocol: The fungus Fusarium solani (ATCC 58877/IMI 314228) was grown in malt agar for 7-14 days at 25° C. to give a mycelial mat and the spores harvested from the surface using physiological saline to give a suspension containing about 10^6 fungal spores/ml. This was then diluted with malt broth to give a spore suspension containing 10^4 spores/ml. A 100 μl aliquot of this spore suspension was added to each well of a microtitre plate except for the first well which contained 180 μl.
A 20 μl aliquot of this solution was added to the first well of the microtitre plate and thoroughly mixed. 100 μl was withdrawn from the first well, added to the second well and mixed.

[3] = test system: Yeast and Fungi (Fusarium solani, Penicillium sp., Acremonium strictum, Geotrichum candidum); test: Microbial resistance test based on ASTM E686-91, fungal contamination in synthetic metal working fluid; type: cell-based; conditions: for Fungal Contamination after (days) 10: 10 days; for Fungal Contamination after (days) 31: 31 days; for Fungal Contamination after (days) 87: 87 days; for Fungal Contamination after (days) 110: 110 days; for all read-outs here: key: +++ indicates confluent growth; ++ indicates moderate growth; + indicates slight growth; − indicates no growth
Protocol: as §1, §2, §3, §4, §5, §6

[4] = Temperature stability of biocide in semi-synthetic metal working fluid (storage at 50° C., HPLC); conditions: Semi-synthetic metal working fluid Quaker fluid No. 12717
Protocol: The biocides shown in Table 1 were added to Trim C111A (ex. Master Chemical Corporation, USA, a synthetic water miscible cutting and grinding fluid used as coolant and lubricant in metal removal processes). The initial concentration of the biocide in the metal working fluid is shown in the third column of Table 1. The metal working fluid was then stored at 50° C. for 45 days.
The concentration of biocide remaining after storage was measured using reverse phase high performance liquid chromatography (HPLC) after initial sample preparation. In the case of 2-n-butyl-benzisothiazolin-3-one, 2-n-octyl-isothiazolin-3-one and 3-iodo-2-propynyl-N-butylcarbamate sample preparation involved solvent extraction of the active from the metal working fluid. For sodium pyrithione, initial sample preparation was derivatisation to produce a compound readily detectable by HPLC.
The stability of the biocides shown in Tables 2 and 3 in semi-synthetic and soluble oil metal working fluids was assessed using the same method described above in Example 1.

[5] = Temperature stability of biocide in soluble oil metal working fluid (storage at 50° C., HPLC)
[6] = Temperature stability of biocide in synthetic metal working fluid (storage at 50° C., HPLC); type: physicochemical; conditions: Synthetic metal working fluid Trim C111A
Protocol: The biocides shown in Table 1 were added to Trim C111A (ex. Master Chemical Corporation, USA, a synthetic water miscible cutting and grinding fluid used as coolant and lubricant in metal removal processes). […] The metal working fluid was then stored at 50° C. for 45 days.

Compound | Fungal Contamination after (days) 10 ([1]; 75 ppm) | Fungal Contamination after (days) 31 ([1]; 75 ppm) | Fungal Contamination after (days) 87 ([1]; 75 ppm) | Fungal Contamination after (days) 110 ([1]; 75 ppm) | Fungal Contamination after (days) 10 ([1]; 150 ppm) | Fungal Contamination after (days) 31 ([1]; 150 ppm) | Fungal Contamination after (days) 87 ([1]; 150 ppm) | Fungal Contamination after (days) 110 ([1]; 150 ppm) | Fungal Contamination after (days) 10 ([3]; Conc. (a.i.) 75 ppm) | Fungal Contamination after (days) 31 ([3]; Conc. (a.i.) 75 ppm) | Fungal Contamination after (days) 87 ([3]; Conc. (a.i.) 75 ppm) | Fungal Contamination after (days) 110 ([3]; Conc. (a.i.) 75 ppm) | Fungal Contamination after (days) 10 ([3]; Conc. (a.i.) 150 ppm) | Fungal Contamination after (days) 31 ([3]; Conc. (a.i.) 150 ppm) | Fungal Contamination after (days) 87 ([3]; Conc. (a.i.) 150 ppm) | Fungal Contamination after (days) 110 ([3]; Conc. (a.i.) 150 ppm) | further results
CCCCn1sc2ccccc2c1=O [BBIT, 2-n-butyl-1,2-benzisothiazolin-3-one] | − | − | + | + | − | − | − | − | − | − | − | − | − | − | − | − | Fungal Contamination after (days) 10 ([1]; 100 ppm): −; Fungal Contamination after (days) 31 ([1]; 100 ppm): −; Fungal Contamination after (days) 87 ([1]; 100 ppm): −; Fungal Contamination after (days) 110 ([1]; 100 ppm): −; MIC values ([2]; malt broth, visual inspection after 5 days at 25° C.): 6.4 ppm; Fungal Contamination after (days) 10 ([3]; Conc. (a.i.) 100 ppm): −; Fungal Contamination after (days) 31 ([3]; Conc. (a.i.) 100 ppm): −; Fungal Contamination after (days) 87 ([3]; Conc. (a.i.) 100 ppm): −; Fungal Contamination after (days) 110 ([3]; Conc. (a.i.) 100 ppm): −
CCCCNC(=O)OCC#CI [IPBC, 3-iodo-2-propynyl-N-n-butyl carbamate, reference compound] | − | − | − | − |  |  |  |  | − | − | − | − |  |  |  |  | % Remaining after storage at 50° C. for 45 days ([4]; initial concentration 5000 ppm): 0%; % Remaining after storage at 50° C. for 45 days ([5]; initial concentration 5000 ppm): 13%
CCCCCCCCn1sccc1=O [OIT, 2-n-octyl-isothiazolin-3-one] |  |  |  |  |  |  |  |  |  |  |  |  |  |  |  |  | % Remaining after storage at 50° C. for 45 days ([6]; initial concentration 2000 ppm): 0%; % Remaining after storage at 50° C. for 45 days ([4]; initial concentration 2000 ppm): 0%
[Na].[O-][n+]1ccccc1S [Sodium Omadine, sodium pyridine-2-thiol-1-oxide, reference compound] |  |  |  |  | − | − | + | + |  |  |  |  | ++ | +++ | +++ | +++ | % Remaining after storage at 50° C. for 45 days ([6]; initial concentration 2500 ppm): 0%; % Remaining after storage at 50° C. for 45 days ([4]; initial concentration 2500 ppm): 0%; % Remaining after storage at 50° C. for 45 days ([5]; initial concentration 2500 ppm): 0%; MIC ([2]; ATCC58877, 120 h, read-out: MIC values): 18.5 µg/mL
